The values below are quoted from earlier work in PMC11547388, “Toxicokinetics and Tissue Distribution of the Hepatotoxic Triterpenoid Saponin Pterocephin A in Rats Using the Ultra-Performance Liquid Chromatography–Tandem Mass Spectrometry (UPLC-MS/MS) Method” (Molecules, 2024).

On the set-up of this data set: method as in PMID 37253396. The settings on record: in vivo, HPLC-QQQ-MS/MS.

Regarding `C=C(C)[C@@H]1CC[C@]2(C(=O)O[C@@H]3O[C@H](CO[C@@H]4O[C@H](CO)[C@@H](O[C@@H]5O[C@@H](C)[C@H](O)[C@@H](O)[C@H]5O)[C@H](O)[C@H]4O)[C@@H](O)[C@H](O)[C@H]3O)CC[C@]3(C)[C@H](CC[C@@H]4[C@@]5(C)CC[C@H](O[C@@H]6OC[C@H](O)[C@H](O)[C@H]6O[C@@H]6O[C@@H](C)[C@H](O)[C@@H](O)[C@H]6O)[C@@](C)(CO)[C@@H]5CC[C@]43C)[C@@H]12` [AB4, anemoside B4], the bioavailability result is listed as “less than 1%”.
